Reference: patent publication US12310964B2, “Compositions and methods for the treatment of Lowe Syndrome” (Purdue Research Foundation, priority 2020, dated 2025)

Experiments:
LS patient cells [1] = assay: Cell spreading assay after a predetermined time-point (cell area); format: cell-based, Human; settings: for LS cell spreading phenotype: LS patient fibroblasts, 30 min after seeding on fibronectin
Method: Two approaches to monitor cell spreading were used: after a predetermined time-point and at multiple time points.
1) Spreading after a Predetermined Time-Point.
(§1) Human dermal fibroblasts (12 h after seeding) were treated with the indicated drug (or vehicle) in 0.1% serum for the indicated time. After drug treatment, the cells were lifted with 20 mM EDTA (ethylenediaminetetraacetic acid) in PBS (phosphate-buffered saline), pelleted at 300×g for 5 min and resuspended in 1% serum in the presence of drug or vehicle. Cell suspensions were then set in a rotator for 1 hour before seeding them on fibronectin-coated coverslips for 30 min, undisturbed, to allow attachment and spreading. After spreading, coverslips were gently rinsed with PBS and fixed in 4% formaldehyde for 10 min at room temperature. Cells were stained with rhodamine—phalloidin and imaged by epifluorescence microscopy. At least 50 cells were quantified per experiment by tracing and measuring cell areas by using the magic wand tool in ImageJ software (National Institutes of Health (NIH), Bethesda, MD, USA).
(§2) Cell spreading on fibronectin-coated surfaces of cells treated with RhoA modulators in comparison to untreated cells was observed. Cells were fixed and stained with fluorescently labeled-phalloidin after 30 min spreading time at 37° C. Following imaging, cell area measurements were performed.

Normal fibroblasts = assay: as above; format: cell-based, Human; settings: 30 min after seeding on fibronectin
Method: as §1, §2

normal cells = assay: Cell adhesion by time-lapse microscopy; format: cell-based, Human
Method: Human dermal fibroblasts were treated as described above, seeded on fibronectin-coated LabTek chambers, and allowed to attach and spread. Cells were imaged at intervals of 10 min after seeding for 8 h using 20× objective in a Zeiss Axiovert inverted microscope. Number of detaching cells was quantified every 10 min up to the first hour by using the cell counter tool in ImageJ (NIH). To determine spreading kinetics, individual cells were tracked in each time lapse image and were scored from 1-5 based on general cell morphology. Briefly, cells that were just attached and looked circular with no protrusions or visible extensions received a score of 1. Cells with needle-like (filopodia) projections were scored 2, cells with lamellopodia-like extensions were scored 3, cells with more extended lamellopodia-like extensions and increased cell area were given a score of 4, and a further increase in cell area, often accompanied by isotropic spread morphology, was given a score of 5. Alternatively, cells were treated as described above and allowed to attach on fibronectin-coated dishes. Immediately after seeding, the cells were imaged with a 10× objective simultaneously using up to 3 Cytosmart Imaging Systems (Lonza, Basel, Switzerland) at intervals of 30 s for 2 h. Number of cells attached was quantified every 10 min up to the first hour using the Cell Counter tool in ImageJ software (NIH).

LS patient cells [2] = assay: Viability/toxicity assessment (cell counting, morphology, MTT); format: cell-based, Human; settings: for toxicity (viability and stress-induced changes in morphology): LS cells after exposure to statins
Method: Cells were incubated with the indicated drugs for the specified times at different concentrations as described in low serum (0.1%) media to avoid substantial protein-mediated drug sequestration. In addition to cell counting post-treatment, a sample of cells seeded on fibronectin-coated coverslips was fixed and stained with fluorescein isothiocyanate (FITC)-phalloidin and DAPI (4′,6-diamidino-2-phenylindole) for cell morphology inspection. Viability was monitored by performing MTT (3-(4,5-dimethylthiazol-2-yl)-2,5-diphenyltetrazolium bromide) assays as follows: Following treatment of cells (in triplicates) with indicated drugs at different concentrations for specified times, media were aspirated and replaced with MTT solution (freshly prepared at 0.5 mg/ml in complete media) and incubated for 1.5 h. Additionally, a blank control with only MTT reagent containing no cells was also prepared. Following incubation, solution was aspirated and MTT was immediately solubilized using 1 mL DMSO (dimethylsulfoxide) (per well) by gentle pipetting. Absorbance values of solubilized MTT solution from the different wells were measured at 570 nm using a spectrophotometer.

LS patient cells [3] = assay: Ciliogenesis assay; format: cell-based, Human; settings: serum starvation
Method: Cells were seeded on glass cover slips and grown for 24 h in complete media. Then media was replaced by 0.1% serum DMEM (starvation media) containing vehicle or the drug to induce ciliogenesis for the indicated times. Cells were then fixed in 4% formaldehyde—PBS for 10 min and immuno-labeled with anti-acetylated tubulin antibody (see Table 2). At least 50 cells were imaged for every experiment and experiments were repeated at least thrice. The fraction of cells displaying cilia and cilia length were determined as described previously (Coon et al. (2012), supra).

mTOR pathway in LS cells = assay: Western blotting of PI3K/Akt/mTOR pathway; format: cell-based, Human
Method: Normal and LS cells were seeded on 100 mm plates and grown to 60-70% confluency in complete media. Then media was exchanged with 0.1% serum DMEM media with DMSO or 10 nM rapamycin for 12 hrs. The cells were washed twice with ice-cold PBS, collected by scraping cells in 200 μl/plate of lysis buffer (25 mM HEPES-KOH, pH7.4, 250 mM NaCl, 1% Triton-X-100 supplement with phosphatase and protease inhibitors), and lysed by passing the cells 10 times through a 26G1/2 needle. The lysates were centrifuged at 14,000×g for 20 min at 4° C., and the supernatant fractions were collected. The samples were analyzed by SDS-PAGE using 7% or 10% polyacrylamide gels and transferred to nitrocellulose membranes. The membranes were blocked with 5% skim milk in PBST (1× phosphate-buffered saline with Tween® detergent) and immunoblotted with the indicated primary and HRP-conjugated secondary antibodies.
The activation of the Akt and mTOR signaling pathways in LS cells treated or not with rapamycin was examined. Cell lysates were prepared, resolved by SDS-PAGE and the presence of phosphorylated and dephosphorylated key elements of the Akt and mTOR pathways were investigated by Western blotting with specific antibodies (FIG. 5D).

HK2 OCRL1 K.O. cells = assay: Indirect immunofluorescence for lysosomes (Lamp2, autolysosomes); format: cell-based, Human; settings: rapamycin (10 nM) or WYE (1 μM)
Method: Following treatment with drugs, cells were washed and fixed with 4% formaldehyde-PBS for 10 min and immune-labeled for LAMP2 (lysosome-associated membrane protein 2). Random fields were imaged using a Zeiss Axiovert inverted microscope using a 40× objective with constant fluorescence exposure times.

[4] = current approved rapamycin treatments; cited from earlier work
[5] = tested on: HK2 and HEK293T OCRL1 K.O. cells; assay: Cell spreading assay in kidney knock-out cells; format: cell-based, Human; settings: HK2 and HEK293T OCRL1 K.O. vs wild-type
Method: Normal (GM07492) and LS primary dermal fibroblasts (GM01676 and GM03265) were obtained from the NIHGMS Human Genetic Cell Repository (Coriell Institute for Medical Research, Camden, NJ, USA). Cells were maintained in Dulbecco's Modified Eagle Medium (DMEM), streptomycin/penicillin, 2 mM L-glutamine and 15% fetal bovine serum (FBS) at 37° C. in a 5% CO2 incubator. When needed, cells were transferred to fibronectin-coated surfaces (plates or coverslips) prepared by incubation with 10 μg/mL fibronectin for 2 h at 37° C. Normal human proximal tubule epithelial (HK2) and human embryonic kidney epithelial 293T (HEK293T) cells obtained from ATCC were grown in DMEM, streptomycin/penicillin, 2 mM L-glutamine and 10% FBS at 37° C. in a 5% CO2 incubator. OCRL1^−/− (OCRL K.O) HK2 and HEK293T cells were prepared by GenScript, Inc., Piscataway, NJ, USA, and maintained under the same conditions as their normal counterparts. Characterization of these cell lines has been described before (Hsieh et al., PLoS One 10.1371/jounal.pone.0192635 (Feb. 14, 2018)).
Human dermal fibroblasts (12 h after seeding) were treated with the indicated drug (or vehicle) in 0.1% serum for the indicated time. […] At least 50 cells were quantified per experiment by tracing and measuring cell areas by using the magic wand tool in ImageJ software (National Institutes of Health (NIH), Bethesda, MD, USA).

With CCCC[C@@H](C=O)NC(=O)[C@H](CC(C)C)NC(=O)OCc1ccccc1 [RhoA activator, calpeptin] the “LS cell spreading phenotype” value (LS patient cells [1]) was “worsened the already impaired spreading ability of LS cells”, the “cell spreading of normal cells” value (Normal fibroblasts) was “displayed a “LS-like” cell spreading phenotype” and the “proportion of de-attaching cells” value (normal cells) was “increased proportion of de-attaching cells”.

For COCc1c(C(C)C)nc(C(C)C)c(/C=C/[C@@H](O)C[C@@H](O)CC(=O)O)c1-c1ccc(F)cc1 [cerivastatin], the “toxicity (viability and stress-induced changes in morphology)” value (LS patient cells [2]) was “substantially toxic”.

For CNC(=O)Nc1ccc(-c2nc(N3CC4CCC(C3)O4)c3cnn(C4CCC5(CC4)OCCO5)c3n2)cc1 [WYE132], the “ciliogenesis / PC assembly defects in LS cells” value (LS patient cells [3]) was “rescue ciliogenesis defects in LS cells”, the “mTOR activation / phosphorylation” value (mTOR pathway in LS cells) was “able to decrease mTOR phosphorylation” and the “autolysosome deficiencies (fraction of cells displaying autolysosomes)” value (HK2 OCRL1 K.O. cells) was “can be rescued”.

For CO[C@H]1C[C@@H]2CC[C@@H](C)[C@@](O)(O2)C(=O)C(=O)N2CCCC[C@H]2C(=O)O[C@H]([C@H](C)C[C@@H]2CC[C@@H](O)[C@H](OC)C2)CC(=O)[C@H](C)/C=C(\C)[C@@H](O)[C@@H](OC)C(=O)[C@H](C)C[C@H](C)/C=C/C=C/C=C/1C [rapamycin], the “toxicity on LS cells (decrease in viability, MTT)” value (LS patient cells [2]; after 72 h-treatment) is listed as 10-15% and the plasma levels [4] is listed as 10 nM.

For CC(C)n1nc(-c2ccc3oc(N)nc3c2)c2c(N)ncnc21 [INK128], the “ciliogenesis / PC assembly defects in LS cells” value (LS patient cells [3]) was “rescue ciliogenesis defects in LS cells” and the “mTOR activation / phosphorylation” value (mTOR pathway in LS cells) was “able to decrease mTOR phosphorylation”.

With C[C@@H]1COCCN1c1cc(=O)n2c(n1)N(Cc1cncc(Cl)c1)[C@H](C(F)(F)F)CC2 [SAR405] the “ciliogenesis / PC assembly defects in LS cells” value (LS patient cells [3]) was “had no effect on ciliogenesis by LS cells” and the “mTOR activation / phosphorylation” value (mTOR pathway in LS cells) was “did not affect mTOR activation”.

With O=S(=O)(c1cccc2cnccc12)N1CCCNCC1 [fasudil] the “LS cell spreading phenotype” value (LS patient cells [1]) was “in contrast to the ROCK-inhibitor fasudil, the MLCK-inhibitor ML-7 was able to mitigate”.

For O=C(O)C[C@H](O)C[C@H](O)/C=C/c1c(C2CC2)nc2ccccc2c1-c1ccc(F)cc1 [pitavastatin], the “LS cell spreading phenotype” value (LS patient cells [1]) was “mitigated to a certain extent the LS spreading phenotype”, the “ranking of statins: rescue effect over needed dose and toxicity” value (LS patient cells [1]; LS spreading defects) was “rosuvastatin>pitavastatin>>>simvastatin and others” and the “toxicity (viability and stress-induced changes in morphology)” value (LS patient cells [2]) was “substantially toxic”.

For CC(C)c1c(C(=O)Nc2ccccc2)c(-c2ccccc2)c(-c2ccc(F)cc2)n1CC[C@@H](O)C[C@@H](O)CC(=O)O [atorvastatin], the “LS cell spreading phenotype” value (LS patient cells [1]) was “mitigated to a certain extent the LS spreading phenotype”.

For C3 transferase [RhoA inhibitor], the “cell spreading / membrane remodeling phenotype in cells from another LS patient” value (LS patient cells [1]; LS2 cells, FIG. 8A) was “confirmed”, the “LS cell spreading phenotype” value (LS patient cells [1]) was “ameliorated the cell spread phenotype” and the “cell spreading phenotype in OCRL1 K.O. kidney cells” value [5] was “confirmed”.

For O=S(=O)(c1cccc2c(I)cccc12)N1CCCNCC1 [ML-7], the “LS cell spreading phenotype” value (LS patient cells [1]) was “able to mitigate the cell spreading phenotype”.

In the case of CSCC[C@H](NC(=O)c1ccc(NC[C@@H](N)CS)cc1-c1ccccc1)C(=O)O [farnesylation inhibitor], the “LS cell spreading phenotype” value (LS patient cells [1]) is reported as “rescue the cell spreading phenotype of LS patient cells”.
